# In PubChem BioAssay (NCI):
#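 Results reflect a 48-hour exposure of cells in 96-well plates to compound at five concentrations. TGI: total growth inhibition.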
# Tests used:
# Assay in all cases: NCI-60 cell line screen, 48 h
# M19-MEL melanoma = system: M19-MEL melanoma
# M14 melanoma = system: M14 melanoma
# SF-295 CNS = system: SF-295 CNS
# MALME-3M melanoma = system: MALME-3M melanoma
# KM20L2 colon = system: KM20L2 colon
# NCI-H23 lung = system: NCI-H23 lung
# CCRF-CEM leukemia = system: CCRF-CEM leukemia
# SF-268 CNS = system: SF-268 CNS
# SK-MEL-28 melanoma = system: SK-MEL-28 melanoma
# 786-0 renal = system: 786-0 renal
# OVCAR-4 ovarian = system: OVCAR-4 ovarian
# SK-MEL-2 melanoma = system: SK-MEL-2 melanoma
# OVCAR-5 ovarian = system: OVCAR-5 ovarian
# NCI-H522 lung = system: NCI-H522 lung
# DLD-1 colon = system: DLD-1 colon
# A549 NSCLC = system: A549 NSCLC
# SNB-75 CNS = system: SNB-75 CNS
# A498 renal = system: A498 renal
# NCI-H460 lung = system: NCI-H460 lung
# HCT-116 colon = system: HCT-116 colon
# RXF 393 renal = system: RXF 393 renal
# HT29 colon = system: HT29 colon
# TK-10 renal = system: TK-10 renal
# UACC-257 melanoma = system: UACC-257 melanoma
# HCC-2998 colon = system: HCC-2998 colon
# LXFL 529 NSCLC = system: LXFL 529 NSCLC
# SF-539 CNS = system: SF-539 CNS
# HOP-62 NSCLC = system: HOP-62 NSCLC
# U251 CNS = system: U251 CNS
# SNB-19 CNS = system: SNB-19 CNS
# ACHN renal = system: ACHN renal
# KM12 colon = system: KM12 colon
# SK-OV-3 ovarian = system: SK-OV-3 ovarian
# K-562 leukemia = system: K-562 leukemia
# OVCAR-3 ovarian = system: OVCAR-3 ovarian
# HOP-92 NSCLC = system: HOP-92 NSCLC
# CAKI-1 renal = system: CAKI-1 renal
# UO-31 renal = system: UO-31 renal
# EKVX NSCLC = system: EKVX NSCLC
smiles,measurement,setting,value
CC1OC(OC2CCCc3c(O)c4c(c(O)c32)C(=O)c2ccccc2C4=O)CC(N)C1O (centres undefined),TGI,M19-MEL melanoma,3.24 µM
same,TGI,M14 melanoma,3.21 µM
same,TGI,SF-295 CNS,3.22 µM
same,TGI,MALME-3M melanoma,3.27 µM
same,TGI,KM20L2 colon,3.84 µM
same,TGI,NCI-H23 lung,3.22 µM
same,TGI,CCRF-CEM leukemia,2.64 µM
same,TGI,SF-268 CNS,3.29 µM
same,TGI,SK-MEL-28 melanoma,3.32 µM
same,TGI,786-0 renal,2.55 µM
same,TGI,OVCAR-4 ovarian,3.2 µM
same,TGI,SK-MEL-2 melanoma,3.21 µM
same,TGI,OVCAR-5 ovarian,3.44 µM
same,TGI,NCI-H522 lung,3.06 µM
same,TGI,DLD-1 colon,2.69 µM
same,TGI,A549 NSCLC,3.37 µM
same,TGI,SNB-75 CNS,2.66 µM
same,TGI,A498 renal,3.23 µM
same,TGI,NCI-H460 lung,2.8 µM
same,TGI,HCT-116 colon,3.11 µM
same,TGI,RXF 393 renal,2.23 µM
same,TGI,HT29 colon,2.87 µM
same,TGI,TK-10 renal,3.02 µM
same,TGI,UACC-257 melanoma,3 µM
same,TGI,HCC-2998 colon,3.51 µM
same,TGI,LXFL 529 NSCLC,2.94 µM
same,TGI,SF-539 CNS,3.01 µM
same,TGI,HOP-62 NSCLC,2.94 µM
same,TGI,U251 CNS,3.44 µM
same,TGI,SNB-19 CNS,3.04 µM
same,TGI,ACHN renal,3.35 µM
same,TGI,KM12 colon,2.98 µM
same,TGI,SK-OV-3 ovarian,2.42 µM
same,TGI,K-562 leukemia,2.35 µM
same,TGI,OVCAR-3 ovarian,2.62 µM
same,TGI,HOP-92 NSCLC,2.86 µM
same,TGI,CAKI-1 renal,2.91 µM
same,TGI,UO-31 renal,3.11 µM
same,TGI,EKVX NSCLC,3.27 µM
